The text below walks through data of US4659734A, “Olinecarboxylic acid derivatives” (Nippon Shinyaku Co., Ltd., priority 1983, dated 1987).

For data set [1], the system named is Pseudomonas aeruginosa E-2. In words: Ascending urinary tract infection. The format is in vivo, ICR female mice. On the procedure: ICR Female mice (body weight 20±1 grams) of SPE strain were used in the experiments. The mice were not given any water for seventeen hours, then compulsorily urinated, anesthesized by the administration of 60 mg/kg of pentobarbital into the abdominal cavity, then 1.5×10^5 of Pseudomonas aeruginosa E-2 strain were impregnated into the bladder via the urinary tract, and the external urinary meatus was stopped for four hours by a pin clip, whereupon the mice were infected in the ascending urinary tract.
The compound of Example 22b was given once orally, 4 hours after infection, then twice a day, and the administration was continued for three days. On the fourth day, the kidney was isolated, homogenized in a physiological saline solution, and the number of bacteria was calculated on suitable medium such as, for example, Drigalski medium. If the number of bacteria per one gram of kidney was less than […], then the compound was judged as "effective".

Data set [2] is described as follows: Excretion into urine and recovery, disc method. It is filed as in vivo, ddY strain mice. To be noted: 60 mg/kg per os, average ± standard error. The procedure:
In the measurement of excretion into urine, ddY strain mice (male; body weights 30±2 grams) were used. Sixty mg/kg of the compound of Example 22b was administered per os and the mice were fed in metabolic cages and their urine was collected.
Therefore, in the quantitative determination, the calibration curve of the compound of Example 21, calculated by the disc method using Escherichia coli NIHJ strain and using the compound dissolved in phosphoric acid buffer (pH 8.0; 1/15M) was used. Table 5 reports the excretion into urine with respect to time, total recovery amount and recovery rate of the compound of Example 22b.

The test system of data set [3] is Klebsiella pneumoniae K-1966. The data set can be described thus: Mouse intraperitoneal infection, survival after one week. The format is in vivo, ddY strain mice. To be noted: K1966, po; Klebsiella pneumoniae K-1966, 3 × 10^3 per mouse; one dose per os 2 h after infection. On the procedure:
(§1) ddY--Strain mice (male; body weight 20±1 grams) of SPF were innoculated with the bacteria set forth in Table 2 by administration of a supension of the bacterial in 4% mucin solution into the abdominal cavity. A compound of the invention was given one time per os two hours after the infection, and, from the survival rate after one week. 50% effective doses (ED50) were calculated by the Behrens-Karber method.

For data set [4], the system named is Acimetobacter calcoaceticus. The data set is described as above. It is filed as in vivo, ddY strain mice. To be noted: po, 1 × 10^7 per mouse, one dose per os 2 h after infection. On the procedure:
as §1

The test system of data set [5] is Staphylococcus aureus Smith. The description is as above. It is filed as in vivo, ddY strain mice. To be noted: po, 3 × 10^6 per mouse, one dose per os 2 h after infection. On the procedure:
as §1

The test system of data set [6] is Serracia marcescens T-55. Described as above. The format is in vivo, ddY strain mice. To be noted: po; Serracia marcescens T-55, 5 × 10^6 per mouse; one dose per os 2 h after infection. The procedure: as §1
For data set [7], the system named is Proteus mirabilis 181. The data set is described as above. It is filed as in vivo, ddY strain mice. To be noted: po; Proteus mirabilis 181, 2 × 10^7 per mouse; one dose per os 2 h after infection. On the procedure:
as §1

The test system of data set [8] is Escherichia coli KC-14. The data set is described as above. The format is in vivo, ddY strain mice. To be noted: KC14, po; Escherichia coli KC-14, 5 × 10^4 per mouse; one dose per os 2 h after infection. The procedure: as §1
The test system of data set [9] is Pseudomonas aeruginosa E-2. The data set is described as above. It is filed as in vivo, ddY strain mice. To be noted: E2, po; Pseudomonas aeruginosa E-2, 2 × 10^5 per mouse; one dose per os 2 h after infection; Behrens-Karber. The procedure: as §1
Data set [10] in a line: Blood serum concentration, disc method. To be noted: mouse, serum, po, 60 mg/kg per os, average ± standard error. The format is in vivo, ddY strain mice. The procedure:
In this experiment, ddY strain mice (male; body weight 30±2 grams) were used. Sixty mg/kg of the compound of Example 22b were given per os. The blood concentration was calculated from calibration curves obtained by the disc method using Escherichia coli NIHJ strain as tested bacteria and diluting the test compound of mice serum.

Some results are limits rather than exact numbers.

Take `CCn1cc(C(=O)O)c(=O)c2cc(F)c(N3CCNCC3)cc21` [Comparison Compd., 1-ethyl-6-fluoro-7-(1-piperazinyl)-4-oxo-1,4-dihydroquinoline-3-carboxylicacid, reference compound]: the “Number Of Mice Where Compound Was Effective/Total Mice Tested” value in data set [1] (3.13 mg/kg oral) is 0/7; in data set [1] (6.25 mg/kg oral), 0/7; in data set [1] (12.5 mg/kg oral), 0/7; in data set [1] (25 mg/kg oral), 1/7; in data set [1] (50 mg/kg oral), 4/7; in [1] (100 mg/kg oral, 4 h after infection then twice a day, three days), 6/7. Besides, the ED50 in data set [1] (Pseudomonas aeruginosa, E2, in Mus musculus, 72 h, ascending urinary tract infection, oral, three days, read-out: 50% Effective Dose) was 58 mg/kg; in data set [3], > 13 mg/kg; in data set [4], > 35 mg/kg; in data set [5], > 25 mg/kg; in data set [6], 6 mg/kg; in [7] it was 29 mg/kg. For the same compound, the figures for the ED50 in [8] and in [9] were 3.3 mg/kg and 260 mg/kg, respectively. Further, the “Amount excreted into Urine” value in data set [2] (0-3 hrs) came to 60.25 ± 17.9 µg; in [2] (3-6 hrs) it was 29.25 ± 9.0 µg; in data set [2] (6-24 hrs), 19.78 ± 6.6 µg. Besides, in [10] (0.25 hours), the concentration at 0.25 h worked out at 640 ± 90 ng/mL. In data set [10] (0.5 hours), the concentration at 0.5 h came to 900 ± 290 ng/mL. The concentration at 1 h in data set [10] (1 hour) came out at 580 ± 100 ng/mL. The same compound returned a concentration at 2 h in [10] (2 hours) of 330 ± 150 ng/mL. For the same compound, the concentration at 4 h in data set [10] (4 hours) was 90 ± 10 ng/mL.
